Reference: patent publication US20230271956A1, “AMIDE DERIVATIVES” (Merck Patent GmbH, priority 2020, published 2023)

Biological target: T1, ACSS2 (Homo sapiens, UniProt Q9NR19)
T1 construct: endogenous fatty acid synthesis activity in the human HCT-15 cancer cell line; endogenous in cells; host or cells: HCT-15
Assay: Cellular assay of 14C acetate incorporation into histones (IC50 ACSS2 cellular histone)
Format: cell-based
Conditions: HCT-15 cells
Outline: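 Human HCT-15 cells preincubated 1 h with compound (0.25% DMSO final), then pulsed 3 h with 14C-acetate. Histones were acid-extracted (0.2 M HCl, overnight, 4° C) after Triton lysis in sodium-butyrate buffer; incorporated 14C counted by liquid scintillation (CPM) to give IC50.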

T1 sequence (Q9NR19 whole entry): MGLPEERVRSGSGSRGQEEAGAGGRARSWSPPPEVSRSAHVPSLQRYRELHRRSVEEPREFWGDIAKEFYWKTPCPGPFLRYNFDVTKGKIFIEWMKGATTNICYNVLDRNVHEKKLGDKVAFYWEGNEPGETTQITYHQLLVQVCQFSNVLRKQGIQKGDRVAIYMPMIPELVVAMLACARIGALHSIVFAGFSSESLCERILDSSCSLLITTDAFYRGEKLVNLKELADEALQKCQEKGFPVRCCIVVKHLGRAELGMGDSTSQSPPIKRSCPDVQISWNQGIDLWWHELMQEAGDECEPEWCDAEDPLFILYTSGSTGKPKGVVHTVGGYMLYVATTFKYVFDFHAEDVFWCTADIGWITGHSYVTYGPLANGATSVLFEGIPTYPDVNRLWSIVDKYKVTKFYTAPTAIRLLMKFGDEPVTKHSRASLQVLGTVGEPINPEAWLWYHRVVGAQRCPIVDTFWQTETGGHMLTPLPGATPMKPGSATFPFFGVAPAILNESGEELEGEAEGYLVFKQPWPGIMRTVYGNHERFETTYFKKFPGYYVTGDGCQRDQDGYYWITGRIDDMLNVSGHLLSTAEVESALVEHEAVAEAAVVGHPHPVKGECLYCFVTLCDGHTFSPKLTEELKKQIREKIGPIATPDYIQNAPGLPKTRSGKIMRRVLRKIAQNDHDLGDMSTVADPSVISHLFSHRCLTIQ

Row | Compound | IC50
1 | CCc1c(C(O)(c2ccccc2F)c2ccccc2F)nn2cc(OC)c(C(=O)Nc3cnn(CC)c3)cc12 [Compound 4, 2-[Bis-(2-fluoro-phenyl)-hydroxy-methyl]-3-ethyl-6-methoxy-pyrazolo[1,5-a]pyridine-5-carboxylic acid (1-ethyl-1H-pyrazol-4-yl)-amide] | 1 to 10 nM
2 | CCc1c(C(O)(c2ccccc2)c2ccccc2)nc2ccc(C(=O)Nc3ncn(CC)n3)cn12 [Compound 25, 3-Ethyl-2-(hydroxy-diphenyl-methyl)-imidazo[1,2-a]pyridine-6-carboxylic acid (1-ethyl-1H-[1,2,4]triazol-3-yl)-amide] | 0.01 to 1 nM
3 | CCn1cnc(NC(=O)c2cc3c(nc2OC)nc(C(O)(c2ccccc2F)c2ccc(OC(F)F)cc2F)n3CC)n1 (racemic) [Compound 94, 2-{[4-(difluoromethoxy)-2-fluorophenyl](2-fluorophenyl)hydroxymethyl}-1-ethyl-N-(1-ethyl-1H-1,2,4-triazol-3-yl)-5-methoxy-1H-imidazo[4,5-b]pyridine-6-carboxamide] | 1 to 10 nM
4 | CCc1c(C(O)(c2ccccc2F)c2ccccc2F)nn2ccc(C(=O)Nc3ncn(CC)n3)cc12 [Compound 5, 2-[Bis-(2-fluoro-phenyl)-hydroxy-methyl]-3-ethyl-pyrazolo[1,5-a]pyridine-5-carboxylic acid (1-ethyl-1H-[1,2,4]triazol-3-yl)-amide] | 1 to 10 nM
5 | CCc1c(C(O)(c2ccccc2)c2ccccc2)nc2cc(Cl)c(C(=O)Nc3cnn(CC)c3)cn12 [Compound 19, 7-Chloro-3-ethyl-2-(hydroxy-diphenylmethyl)-imidazo[1,2-a]pyridine-6-carboxylic acid (1-ethyl-1H-pyrazol-4-yl)-amide] | 10 to 100 nM
6 | CCc1c(C(O)(c2ccccc2)c2ccccc2)nc2cc(F)c(C(=O)Nc3ncn(CC)n3)cn12 [Compound 20, 3-Ethyl-7-fluoro-2-(hydroxy-diphenylmethyl)-imidazo[1,2-a]pyridine-6-carboxylic acid (1-ethyl-1H-[1,2,4]triazol-3-yl)-amide] | 0.01 to 1 nM
7 | CCc1c(C(O)(c2ccccc2)c2ccccc2)nc2cc(OC)c(C(=O)Nc3cnn(CC)c3)cn12 [Compound 23, 3-Ethyl-2-(hydroxy-diphenyl-methyl)-7-methoxy-imidazo[1,2-a]pyridine-6-carboxylic acid (1-ethyl-1H-pyrazol-4-yl)-amide] | 1 to 10 nM
8 | CCc1c(C(O)(c2ccccc2F)c2ccccc2F)nn2cc(Cl)c(C(=O)Nc3ncn(CC)n3)cc12 [Compound 2, 2-[Bis-(2-fluoro-phenyl)-hydroxy-methyl]-6-chloro-3-ethyl-pyrazolo[1,5-a]pyridine-5-carboxylic acid (1-ethyl-1H-[1,2,4]triazol-3-yl)-amide] | 0.01 to 1 nM
9 | CCc1c(C(O)(c2ccccc2)c2ccccn2)nc2cc(OC)c(C(=O)Nc3ncn(CC)n3)cn12 (racemic) [Compound 16, 3-Ethyl-2-(hydroxy-phenyl-pyridin-2-yl-methyl)-7-methoxy-imidazo[1,2-a]pyridine-6-carboxylic acid (1-ethyl-1H-[1,2,4]triazol-3-yl)-amide] | 1 to 10 nM
10 | CCc1c(C(O)(c2ccccc2F)c2ccccc2F)nc2cc(Cl)c(C(=O)Nc3ncn(CC)n3)cn12 [Compound 31, 2-[Bis-(2-fluoro-phenyl)-hydroxy-methyl]-7-chloro-3-ethyl-imidazo[1,2-a]pyridine-6-carboxylic acid (1-ethyl-1H-[1,2,4]triazol-3-yl)-amide] | 0.01 to 1 nM
11 | CCc1c(C(O)(c2ccccc2)c2ccccc2)nn2cc(OC)c(C(=O)Nc3cnn(CC)c3)cc12 [Compound 8, 3-Ethyl-2-(hydroxy-diphenyl-methyl)-6-methoxy-pyrazolo[1,5-a]pyridine-5-carboxylic acid (1-ethyl-1H-pyrazol-4-yl)-amide] | 1 to 10 nM
12 | CCn1cnc(NC(=O)c2cc3c(nc2OC)nc(C(O)(c2ccccc2)c2ccccc2)n3CC)n1 [Compound 103, 1-ethyl-N-(1-ethyl-1H-1,2,4-triazol-3-yl)-2-(hydroxydiphenylmethyl)-5-methoxy-1H-imidazo[4,5-b]pyridine-6-carboxamide] | 0.01 to 1 nM
13 | CCc1c(C(O)(c2ccccc2F)c2ccccc2F)nc2cc(OC)c(C(=O)Nc3ncn(CC)n3)cn12 [Compound 28, 2-[Bis-(2-fluoro-phenyl)-hydroxy-methyl]-3-ethyl-7-methoxy-imidazo[1,2-a]pyridine-6-carboxylic acid (1-ethyl-1H-[1,2,4]triazol-3-yl)-amide] | 0.01 to 1 nM
14 | CCc1c(C(O)(c2ccccc2)c2ccccc2)nn2ccc(C(=O)Nc3cnn(CC)c3)cc12 [Compound 10, 3-Ethyl-2-(hydroxy-diphenyl-methyl)-pyrazolo[1,5-a]pyridine-5-carboxylic acid (1-ethyl-1H-pyrazol-4-yl)-amide] | 10 to 100 nM
15 | CCn1cnc(NC(=O)c2cc3c(nc2F)nc(C(O)(c2ccccc2F)c2ccccc2F)n3CC)n1 [Compound 91, 2-[bis(2-fluorophenyl)(hydroxy)methyl]-1-ethyl-N-(1-ethyl-1H-1,2,4-triazol-3-yl)-5-fluoro-1H-imidazo[4,5-b]pyridine-6-carboxamide] | 0.01 to 1 nM
16 | CCc1c(C(O)(c2ccccc2)c2ccccc2)nn2cc(Cl)c(C(=O)Nc3cnn(CC)c3)cc12 [Compound 6, 6-Chloro-3-ethyl-2-(hydroxy-diphenylmethyl)-pyrazolo[1,5-a]pyridine-5-carboxylic acid (1-ethyl-1H-pyrazol-4-yl)-amide] | 1 to 10 nM
17 | CCc1c(C(O)(c2ccccc2)c2ccccc2)nn2cc(OC)c(C(=O)Nc3ncn(CC)n3)cc12 [Compound 11, 3-Ethyl-2-(hydroxy-diphenyl-methyl)-6-methoxy-pyrazolo[1,5-a]pyridine-5-carboxylic acid (1-ethyl-1H-[1,2,4]triazol-3-yl)-amide] | 0.01 to 1 nM
18 | CCn1cnc(NC(=O)c2cc3c(nc2F)nc(C(O)(c2ccccc2)c2ccccc2)n3CC)n1 [Compound 89, 1-ethyl-N-(1-ethyl-1H-1,2,4-triazol-3-yl)-5-fluoro-2-(hydroxydiphenylmethyl)-1H-imidazo[4,5-b]pyridine-6-carboxamide] | 1 to 10 nM
19 | CCc1c(C(O)(c2ccccc2F)c2ccccc2F)nn2cc(C)c(C(=O)Nc3ncn(CC)n3)cc12 [Compound 3, 2-[Bis-(2-fluoro-phenyl)-hydroxy-methyl]-3-ethyl-6-methyl-pyrazolo[1,5-a]pyridine-5-carboxylic acid (1-ethyl-1H-[1,2,4]triazol-3-yl)-amide] | 1 to 10 nM
20 | CCn1cnc(NC(=O)c2cc3c(nc2OC)nc(C(O)(c2ccccc2F)c2ccccc2F)n3CC)n1 [Compound 102, 2-[bis(2-fluorophenyl)(hydroxy)methyl]-1-ethyl-N-(1-ethyl-1H-1,2,4-triazol-3-yl)-5-methoxy-1H-imidazo[4,5-b]pyridine-6-carboxamide] | 0.01 to 1 nM
21 | CCc1c(C(O)(c2ccccc2)c2ccccc2)nc2cc(OC)c(C(=O)Nc3ncn(CC)n3)cn12 [Compound 24, 3-Ethyl-2-(hydroxy-diphenyl-methyl)-7-methoxy-imidazo[1,2-a]pyridine-6-carboxylic acid (1-ethyl-1H-[1,2,4]triazol-3-yl)-amide] | 0.01 to 1 nM
22 | CCc1c(C(O)(c2ccccc2)c2ccccc2)nn2ccc(C(=O)Nc3ncn(CC)n3)cc12 [Compound 9, 3-Ethyl-2-(hydroxy-diphenyl-methyl)-pyrazolo[1,5-a]pyridine-5-carboxylic acid (1-ethyl-1H-[1,2,4]triazol-3-yl)-amide] | 0.01 to 1 nM
23 | CCc1c(C(O)(c2ccccc2)c2ccccc2)nc2ccc(C(=O)Nc3cnn(CC)c3)cn12 [Compound 13, 3-Ethyl-2-(hydroxy-diphenyl-methyl)-imidazo[1,2-a]pyridine-6-carboxylic acid (1-ethyl-1H-pyrazol-4-yl)-amide] | 10 to 100 nM
24 | CCn1cc(NC(=O)c2cc3c(nc2Cl)nc(C(O)(c2ccccc2)c2ccccc2)n3CC)cn1 [Compound 98, 5-chloro-1-ethyl-N-(1-ethyl-1H-pyrazol-4-yl)-2-(hydroxydiphenylmethyl)-1H-imidazo[4,5-b]pyridine-6-carboxamide] | 1 to 10 nM
25 | CCc1c(C(O)(c2ccccc2)c2ccccc2)nc2cc(Cl)c(C(=O)Nc3ncn(CC)n3)cn12 [Compound 14, 7-Chloro-3-ethyl-2-(hydroxy-diphenylmethyl)-imidazo[1,2-a]pyridine-6-carboxylic acid (1-ethyl-1H-[1,2,4]triazol-3-yl)-amide] | 1 to 10 nM
26 | CCc1c(C(O)(c2ccccc2)c2ccccc2)nn2cc(Cl)c(C(=O)Nc3ncn(CC)n3)cc12 [Compound 1, 6-Chloro-3-ethyl-2-(hydroxy-diphenylmethyl)-pyrazolo[1,5-a]pyridine-5-carboxylic acid (1-ethyl-1H-[1,2,4]triazol-3-yl)-amide] | 0.01 to 1 nM
27 | CCc1c(C(O)(c2ccccc2F)c2ccccc2F)nc2cc(OC)c(C(=O)Nc3cnn(CC)c3)cn12 [Compound 30, 2-[Bis-(2-fluoro-phenyl)-hydroxy-methyl]-3-ethyl-7-methoxy-imidazo[1,2-a]pyridine-6-carboxylic acid (1-ethyl-1H-pyrazol-4-yl)-amide] | 1 to 10 nM
28 | CCn1c(C(O)(c2ccccc2)c2ccccc2)nc2ccc(C(=O)NC[C@@H](C)O)cc21 [Reference Compound, 3-Ethyl-2-[hydroxy(diphenyl)methyl]-N-[(2R)-2-hydroxypropyl]benzimidazole-5-carboxamide, reference compound] | 0.01 to 1 nM
29 | CCn1cc(NC(=O)c2cc3c(nc2F)nc(C(O)(c2ccccc2F)c2ccccc2F)n3CC)cn1 [Compound 90, 2-[bis(2-fluorophenyl)(hydroxy)methyl]-1-ethyl-N-(1-ethyl-1H-pyrazol-4-yl)-5-fluoro-1H-imidazo[4,5-b]pyridine-6-carboxamide] | 1 to 10 nM
30 | CCn1cnc(NC(=O)c2cc3c(nc2OC)nc(C(O)(c2ccccc2)c2ccccn2)n3CC)n1 (single isomer, unassigned) [Compound 53, 1-ethyl-N-(1-ethyl-1H-1,2,4-triazol-3-yl)-2-[hydroxy(phenyl)(pyridin-2-yl)methyl]-5-methoxy-1H-imidazo[4,5-b]pyridine-6-carboxamide] | 0.01 to 1 nM
